By EC50 is commonly meant the concentration at which the effect is half-maximal. Read a low EC50 as higher potency in that assay.

Drawing on patent US20250223301A1, “KINASE INHIBITORS, PREPARATION METHODS AND USES THEREOF” (InventisBio Co., Ltd., priority 2022, published 2025), this text covers EC50 for 20 compounds.

The test system of one assay is PBMC. The experiment in a line: Human PBMC IL-2 assay. Type of assay: cell-based. Particulars: anti-CD3/CD28 stimulation overnight, IL-2 level. Here is the method: PBMC (frozen) obtained from health donor were thawed in RPMI-1640 medium with 10% FBS and incubated for 4 h at 37° C. In a 96-well plate, −200,000 PBMC cells in 160 uL were added to each assay well. Ten microliter compound solution (10 uM to 0.6 nM, 8 points with 4-fold dilution) were added to cells in each well and incubated for 60 minutes at 37° C. Then 30 uL anti-CD3/CD28 antibody (Catalog #10991, Stemcell) were added to cells and incubated overnight at 37° C. After the incubation, 16 uL supernatants were transferred into a new 384-well white assay plate for cytokine analysis. IL-2 level was quantified using Human IL-2 kit (Catalog #62HIL02PEG, Cisbio) as described in the manufacturer manual.
(§1) X is log of compound concentration, Y is the IL-2 concentration, increasing as X increases.

A further assay concerns Jurkat cells. The experiment in a line: Jurkat IL-2 assay. Type of assay: cell-based. Particulars: Homo sapiens, anti-CD3/CD28 stimulation overnight, IL-2 level. The method, then: Jurkat cells (ATCC) were cultured in RPMI-1640 medium supplemented with 10% FBS. In a 96-well plate, −250,000 cells in 130 uL were added to each assay well. Ten microliter compound solution (5 uM to 2.3 nM, 8 points with 3-fold dilution) were added to cells in each well and incubated for 60 minutes at 37° C. Then 10 uL anti-CD3/CD28 antibody (Catalog #10991, Stemcell) were added and incubated overnight at 37° C. After the incubation, 16 uL supernatants were transferred into a new 384-well white assay plate for cytokine analysis. IL-2 was quantified using Human IL-2 kit (Catalog #62HIL02PEG, Cisbio) as described in the manufacturer manual.
as §1

In the case of `CC[C@@H]1CN2c3c(c(=O)n(C)c4ccc(C#N)nc34)OC[C@@H]2CN1[C@H](CC)c1ccc(F)c(C)c1` (stereo in doubt) [Compound 336], the EC50 is 163 nM in the assay on PBMC and 131 nM with Jurkat cells.

In the case of `CC[C@@H]1CN2c3c(c(=O)n(C)c4ccc(C#N)nc34)OC[C@@H]2CN1[C@H](CC)c1ccc(Cl)cc1` (stereo in doubt) [Compound 243], the EC50 in the assay on PBMC was found to be 212 nM; in the assay on Jurkat cells, 473 nM.

`CC[C@@H]1CN2c3c(c(=O)n(C)c4ccc(C#N)nc34)OC[C@@H]2CN1[C@H](CC)c1ccc(C(F)(F)F)cn1` (stereo in doubt) [Compound 187] showed an EC50 with PBMC of 322 nM.

Consider `CC[C@H]1CN([C@@H](CC)c2nc(C(F)(F)F)no2)[C@H](CC)CN1c1nc2nncn2c2ccc(C#N)nc12` (stereo in doubt) [Compound 135], for which the EC50 in the assay on PBMC was 69 nM; with Jurkat cells, 70 nM.

`CC[C@H]1CN2[C@@H](COC[C@@H]2c2ccc(C(F)(F)F)cc2)CN1c1nc2nncn2c2ccc(C#N)nc12` [Compound 192] came in with an EC50 with PBMC of 3050 nM.

`CCC[C@@H]1CN2c3c(c(=O)n(C)c4ccc(C#N)nc34)OC[C@@H]2CN1[C@H](C)c1ccc(OCC2CC2)cc1F` (stereo in doubt) [Compound 164]: in the assay with PBMC, a half-maximal effect (EC50) was put at 233 nM.

Regarding `CC[C@@H]1CN2c3c(c(=O)n(C4CCC4)c4ccc(C#N)nc34)OC[C@@H]2CN1[C@@H](CC)c1ccc(C(F)(F)F)cc1` (stereo in doubt) [Compound 263], in the assay on Jurkat cells, the concentration for a half-maximal effect (EC50) worked out at 582 nM.

In the assay on PBMC, `C[C@@H]1CN2c3c(c(=O)n(C)c4ccc(C#N)nc34)OC[C@@H]2CN1[C@@H](C)c1ccc(Cl)cc1Cl` (stereo in doubt) [Compound 268] displayed an EC50 of 890 nM.

Take `C[C@H]1CC2(CCN1c1nc(=O)n(C)c3ccc(C#N)nc13)CC(c1ccc(OC(F)(F)F)cc1)=NO2` (some centres unmarked) [Compound 50]: a half-maximal response in the assay with Jurkat cells (EC50) required 435 nM. This lies in the sub-micromolar range.

On to `CC[C@@H]1CN2c3c(c(=O)n(C)c4ccc(C#N)nc34)N(C)C[C@@H]2CN1[C@H](CC)c1ccc(C(F)(F)F)cc1` [Compound 220], for which, in the assay on PBMC, it took 3840 nM to reach a half-maximal effect (EC50).

As to `CC[C@H](c1ccc(F)c(Cl)c1)N1C[C@H]2COc3c(c4nc(C#N)ccc4n(C)c3=O)N2C[C@H]1C` (stereo in doubt) [Compound 237], the concentration giving a half-maximal response (EC50) with PBMC came out at 1330 nM. This EC50 lies about 2.9-fold lower than the previous one.

The compound `CC[C@@H]1CN2c3c(c(=O)n(C)c4ccc(C#N)nc34)OC[C@@H]2CN1c1nc2cc(C)ccc2o1` [Compound 165] gave an EC50 in the assay on PBMC of 375 nM.

On to `CC[C@H]1CN([C@H](CC)c2ccc(C3CC3)nc2)[C@H](CC)CN1c1nc2nncn2c2ccc(C#N)nc12` (stereo in doubt) [Compound 189], for which the midpoint of the response with PBMC, the EC50, lay at 276 nM. The EC50 values of the last two compounds are within 1.5-fold of each other.

For `CC[C@@H]1CN2c3c(c(=O)n(C)c4ccc(C#N)nc34)OC[C@@H]2CN1[C@H](CC)c1c(F)ccc(F)c1F` (stereo in doubt) [Compound 171], the EC50 in the assay with PBMC was determined as 1250 nM. This EC50 is about 4.5-fold higher than that of the compound before.

For the compound `CC[C@@H]1CN2c3c(c(=O)n(C)c4ccc(C#N)nc34)OC[C@@H]2CN1[C@H](CC)c1ccc(F)c(F)c1` (stereo in doubt) [Compound 182], the EC50 in the assay with PBMC was found to be 1880 nM.

`CC[C@H]1CN([C@@H](CC)c2ccc(C3CC3)nc2)[C@H](CC)CN1c1nc2nncn2c2ccc(C#N)nc12` (stereo in doubt) [Compound 188] registered an EC50 in the assay on PBMC of 577 nM. Against the preceding compound, the EC50 is about 3.3-fold lower.

Compound `CC[C@H](c1ccc(C(F)(F)F)cc1)N1C[C@H]2COc3c(c4nc(C#N)ccc4n(C)c3=O)N2C[C@H]1C` (stereo in doubt) [Compound 178] yielded an EC50 in the assay on PBMC of 299 nM.

Compound `CCC[C@@H]1CN2c3c(c(=O)n(C)c4ccc(C#N)nc34)OC[C@@H]2CN1[C@@H](C)c1ccc(OCC2CC2)cc1F` (stereo in doubt) [Compound 163] returned an EC50 in the assay on PBMC of 340 nM. The EC50 values of the last two compounds are within 1.5-fold of each other.

`Cc1ccc2oc(C3(C)CCN(c4c(C#N)c(=O)n(C)c5ccc(C#N)nc45)CC3)nc2c1` [Compound 7]: the EC50 with PBMC was found to be 372 nM.

As to `CC[C@@H]1CN2c3c(c(=O)n(C)c4ccc(C#N)nc34)OC[C@@H]2CN1[C@H](CC)c1ccc(S(C)(=O)=O)cc1` (stereo in doubt) [Compound 185], the EC50 in the assay on PBMC turned out to be 7230 nM.
